These results are taken from ChEMBL document CHEMBL1134487, “Design, synthesis, and biological evaluation of analogues of the antitumor agent, 2-(4-[(7-chloro-2-quinoxalinyl)oxy]phenoxy)propionic acid (XK469)” (2001).

Assay [1] relates to Mus musculus. The assay can be described thus: In vivo activity tested against C3H mice bearing colon adenocarcinoma -38(colon-38) tumor measured as body weight loss at 495 mg/kg (po). Type of assay: functional.
For assay [2], the system named is Mus musculus. The assay can be described thus: In vivo activity tested against C3H mice bearing colon adenocarcinoma -38(colon-38) tumor measured as % treated/control calculated at 495 mg/kg (po). It counts as functional.
The test system of assay [3] is Mus musculus. Description: In vivo activity tested against C3H mice bearing colon adenocarcinoma -38(colon-38) tumor measured as activity rating at 495 mg/kg (po). Type of assay: functional.
Assay [4] has as its system Mus musculus. The assay can be described thus: In vivo activity tested against C3H mice bearing colon adenocarcinoma -38(colon-38) tumor, measured as cures at 495 mg/kg (po); 3/5 cures. It counts as functional.
Assay [5] deals with Mus musculus. Description: In vivo activity tested against C3H mice bearing colon adenocarcinoma -38(colon-38) tumor measured as log Kill value was based on tumors that grew at 495 mg/kg (po). Type of assay: functional, organism-based. The arrangement: dose 495 mg/kg.
Assay [6] relates to Mus musculus. Description: In vivo activity tested against C3H mice bearing panc-03 murine tumor at a dose of 330mg/kg, measured as % treated/control. Type of assay: functional.
In assay [7] the test system is Mus musculus. Description: In vivo activity tested against C3H mice bearing Mam 17/Adr murine tumor at a dose of 330 mg/kg, measured as activity rating. Type of assay: functional.
Assay [8] relates to Mus musculus. Description: In vivo activity tested against C3H mice bearing panc-03 murine tumor at a dose of 330mg/kg, measured as activity rating. Type of assay: functional.
The subject of assay [9] is Mus musculus. Description: In vivo activity tested against C3H mice bearing panc-03 murine tumor measured as body weight loss at 1320 mg/kg (po). It counts as functional.
Assay [10] relates to Mus musculus. The assay can be described thus: In vivo activity tested against C3H mice bearing panc-03 murine tumor measured as log Kill value was based on tumors that grew at 1320 mg/kg (po). The arrangement: dose 1320 mg/kg. It counts as functional, organism-based.
Assay [11] deals with Mus musculus. Description: In vivo activity tested against C3H mice bearing panc-03 murine tumor measured as % treated/control calculated at 1320 mg/kg (po). Type of assay: functional.
The subject of assay [12] is Mus musculus. The assay can be described thus: In vivo activity tested against C3H mice bearing colon adenocarcinoma -38(colon-38) tumor measured as body weight loss at 769 mg/kg (po). It counts as functional.
For assay [13], the system named is Mus musculus. The assay can be described thus: In vivo activity tested against C3H mice bearing colon adenocarcinoma -38(colon-38) tumor measured as % treated/control calculated at 769 mg/kg (po). It counts as functional.
Assay [14] has as its system Mus musculus. Description: In vivo activity tested against C3H mice bearing colon adenocarcinoma -38(colon-38) tumor measured as activity rating at 769 mg/kg (po). Type of assay: functional.
Assay [15] relates to Mus musculus. The assay can be described thus: In vivo activity tested against C3H mice bearing colon adenocarcinoma -38(colon-38) tumor measured as log Kill value was based on tumors that grew at 769 mg/kg (po). Type of assay: functional, organism-based. The arrangement: dose 769 mg/kg.
The test system of assay [16] is Mus musculus. Description: In vivo activity tested against C3H mice bearing colon adenocarcinoma -38(colon-38) tumor measured as body weight loss at 2770 mg/kg (po). It counts as functional.
Assay [17] has as its system Mus musculus. The assay can be described thus: In vivo activity tested against C3H mice bearing colon adenocarcinoma -38(colon-38) tumor measured as % treated/control calculated at 2770 mg/kg (po). It counts as functional.
The subject of assay [18] is Mus musculus. Description: In vivo activity tested against C3H mice bearing colon adenocarcinoma -38(colon-38) tumor measured as activity rating at 2770 mg/kg (po). Type of assay: functional.
In assay [19] the test system is Mus musculus. Description: In vivo activity tested against C3H mice bearing colon adenocarcinoma -38(colon-38) tumor measured as log Kill value was based on tumors that grew at 2770 mg/kg (po); None. Type of assay: functional, organism-based. Set-up: dose 2770 mg/kg.
The subject of assay [20] is Mus musculus. The assay can be described thus: In vivo activity tested against C3H mice bearing panc-03 murine tumor measured as body weight loss at 1530 mg/kg (po). It counts as functional.
For assay [21], the system named is Mus musculus. The assay can be described thus: In vivo activity tested against C3H mice bearing panc-03 murine tumor measured as log Kill value was based on tumors that grew at 1530 mg/kg (po). Type of assay: functional, organism-based. The arrangement: dose 1530 mg/kg.
Assay [22] relates to Mus musculus. The assay can be described thus: In vivo activity tested against C3H mice bearing panc-03 murine tumor measured as % treated/control calculated at 1530 mg/kg (po). Type of assay: functional.
Assay [23] relates to Mus musculus. Description: In vivo activity tested against C3H mice bearing panc-03 murine tumor measured as % treated/control calculated at 287 mg/kg (po). Type of assay: functional.
Assay [24] relates to Mus musculus. Description: In vivo activity tested against C3H mice bearing panc-03 murine tumor measured as % treated/control calculated at 351 mg/kg (po). It counts as functional.
In assay [25] the test system is Mus musculus. Description: In vivo activity tested against C3H mice bearing panc-03 murine tumor measured as body weight loss at 287 mg/kg (po). Type of assay: functional.
Assay [26] has as its system Mus musculus. The assay can be described thus: In vivo activity tested against C3H mice bearing panc-03 murine tumor measured as body weight loss at 351 mg/kg (po). Type of assay: functional.
Assay [27] concerns Mus musculus. The assay can be described thus: In vivo activity tested against C3H mice bearing panc-03 murine tumor measured as log Kill value was based on tumors that grew at 287 mg/kg (po). It counts as functional, organism-based. The arrangement: dose 287 mg/kg.
The test system of assay [28] is Mus musculus. The assay can be described thus: In vivo activity tested against C3H mice bearing panc-03 murine tumor measured as log Kill value was based on tumors that grew at 351 mg/kg (po). It counts as functional, organism-based. Set-up: dose 351 mg/kg.
Assay [29] relates to Mus musculus. Description: In vivo activity tested against C3H mice bearing panc-03 murine tumor measured as% treated/control calculated at 477 mg/kg (po). Type of assay: functional.
The subject of assay [30] is Mus musculus. The assay can be described thus: In vivo activity tested against C3H mice bearing panc-03 murine tumor measured as body weight loss at 477 mg/kg (po). Type of assay: functional.
Assay [31] relates to Mus musculus. Description: In vivo activity tested against C3H mice bearing panc-03 murine tumor measured as log Kill value was based on tumors that grew at 477 mg/kg (po); kill value was NIL. Set-up: dose 477 mg/kg. It counts as functional, organism-based.
Assay [32] has as its system Mus musculus. The assay can be described thus: In vivo activity tested against C3H mice bearing panc-03 murine tumor. It counts as functional.

Molecules are shown by their SMILES. Active and inactive are the calls of the source. The calls are words filed in the database; no cut-off is given here. Where only a bound is given, the exact number is not on record here.

For `COC(=O)C(C)Oc1ccc(Oc2cnc3ccc(Cl)cc3n2)cc1` (configuration not stated), the Body weight loss with Mus musculus [1] was found to be 0%. Further, in the assay on Mus musculus [2], the T/C is reported as 0%. The compound further registered an Activity rating in the assay with Mus musculus [3] greater than 2.8. Besides, the Cures in the assay on Mus musculus [4] stood at 3. For the same compound, in the assay on Mus musculus [5], the Log kill was found to be 3.5.

`CC(Sc1ccc(Oc2cnc3ccc(Cl)cc3n2)cc1)C(=O)O` (configuration not stated) came in with a T/C in the assay with Mus musculus [6] of 100%. Besides, the Activity rating in the assay with Mus musculus [7] and in the assay with Mus musculus [8] was greater than 2.8 throughout.

For the compound `CC(Oc1ccc(Oc2cnc3ccc(Cl)cc3n2)cc1)C(N)=O` (configuration not stated), the Body weight loss in the assay on Mus musculus [9] is recorded as -3.6%. This compound also showed a Log kill with Mus musculus [10] of 1.9. Further, the T/C with Mus musculus [11] is 7.3.

Take `CC(Oc1ccc(Oc2cnc3cc(F)ccc3n2)cc1)C(=O)O` (configuration not stated): in the assay with Mus musculus [12], the Body weight loss was 1%. For the same compound, the T/C in the assay with Mus musculus [13] was 34%. This compound also displayed an Activity rating in the assay on Mus musculus [14] of 1.2. This compound also showed a Log kill in the assay with Mus musculus [15] of 0.9.

On to `COC(=O)C(C)Oc1ccc(Oc2cnc3cc(Cl)ccc3n2)cc1` (configuration not stated), for which the Body weight loss with Mus musculus [16] amounted to 0%. Further, in the assay on Mus musculus [17], the T/C is reported as greater than 100%. In addition, the Activity rating with Mus musculus [18] is less than 0.7. Further, the Log kill entry with Mus musculus [19] was “inactive”.

For `CC(Oc1ccc(Oc2cnc3ccc(Cl)cc3n2)cc1)C(=O)N(C)C` (configuration not stated), the Body weight loss with Mus musculus [20] is given as -3.8%. Besides, the Log kill with Mus musculus [21] came out at 2.2. For the same compound, the T/C in the assay with Mus musculus [22] is on record as 16%.

Take `CC(Oc1ccc(Oc2cnc3cccc(Cl)c3n2)cc1)C(=O)O` (configuration not stated): the T/C is reported as 69% with Mus musculus [23] and 74% in the assay on Mus musculus [24]. The Body weight loss with Mus musculus [25] is listed as -3.9%; in the assay on Mus musculus [26] it was -4%. Besides, the Log kill in the assay with Mus musculus [27] amounted to 0.1; in the assay with Mus musculus [28] it was 0.

Take `CC(Oc1ccc(Oc2cnc3ccc(Cl)cc3n2)cc1)C1N=NN=N1` (configuration not stated): the T/C in the assay with Mus musculus [29] was greater than 100%. For the same compound, the Body weight loss in the assay on Mus musculus [30] came out at 8.7%. For the same compound, the Log kill entry in the assay on Mus musculus [31] is recorded as “kill value was NIL”. The Activity rating in the assay with Mus musculus [32] is less than 0.7.
